Test results: ChEMBL document CHEMBL1130597, “Design of a high affinity peptidomimetic opioid agonist from peptide pharmacophore models” (Bioorg Med Chem Lett, 1998)

Target: Mu-type opioid receptor (Rattus norvegicus, UniProt P33535)
Experiment: Compound was tested for its ability to stimulate [35S]GTP-gamma-S, binding to membranes from C6 glioma cells stably expressing rat mu opioid receptor
Format: functional, cell membranes

Sequence of Mu-type opioid receptor (P33535 whole entry): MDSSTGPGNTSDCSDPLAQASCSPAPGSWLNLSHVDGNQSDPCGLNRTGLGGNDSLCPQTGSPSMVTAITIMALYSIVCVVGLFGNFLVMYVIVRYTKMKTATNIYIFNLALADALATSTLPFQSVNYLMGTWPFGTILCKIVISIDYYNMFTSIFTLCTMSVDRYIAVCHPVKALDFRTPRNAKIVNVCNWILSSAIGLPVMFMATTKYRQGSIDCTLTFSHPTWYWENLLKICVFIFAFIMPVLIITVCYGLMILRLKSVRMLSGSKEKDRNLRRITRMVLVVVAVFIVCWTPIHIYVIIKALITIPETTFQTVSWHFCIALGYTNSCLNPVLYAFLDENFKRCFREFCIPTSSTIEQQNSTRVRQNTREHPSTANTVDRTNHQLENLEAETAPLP

`CC1(C)SSC[C@@H](NC(=O)[C@@H](N)Cc2ccc(O)cc2)C(=O)N[C@@H](Cc2ccccc2)C(=O)N[C@@H]1C(N)=O` was tested, and the EC50 was 18.2 nM.
